The test system of the assay is green pea aphid (Myzus persicae). Description: Aphid mortality on leaf discs, Potters tower, K4B3 extract versus beauvericin. Type of assay: in vivo. The procedure: Table 7 below presents mortality observed amongst green pea aphid (Myzus persicae) present on Asian brassica leaf discs. Asian brassica leaf discs were placed on 1% water agar in Petri dishes. […] The sprayed Petri dishes were placed dorsal side down on paper towels to allow surfaces to dry. Five replicates of each treatment were done. Mortality was assessed 48 hours after application.

The mark [1] stands for this setting: per replicate, 2 mL sprayed, 48 hours, beauvericin solution 50 μg/mL with 2.5 mL millennium oil/L.
Setting [2] is: total of replicates, 2 mL sprayed, 48 hours.

Several values for one entry are separate records, joined by “and”; a condition that tells them apart may be missing. Equal entries are not always repeated.

In the case of beauvericin, the “mortality compared with the water control” value (beauvericin alone, Table 7) is listed as “not significantly different”. The “aphid mortality (in words)” value (beauvericin even at 50,000 μg/L) is recorded as “very low”. In addition, under setting [1], the “Alive Adult” value is 0 (3×) and 8 and 10; the “Alive Juv.” value was 0 (3×) and 22 and 28; the “Dead Adult” value was 0 (4×) and 1; the “Dead Juv.” value was 0 (3×) and 1 and 3. Further, under setting [2], the “Total Alive Adult” value stood at 18, the “Total Alive Juv.” value worked out at 50, the “Total Dead Adult” value is reported as 1 and the “Total Dead Juv.” value is recorded as 4.

(Values after US20150050244A1, “Entomopathogenic Fungi and Uses Thereof” (priority 2008, published 2015).)
